Data on one compound can be found in paper PMC10606833, “A Comprehensive Study on the Chemical Characterization and Neuroprotective Evaluation of Pracaxi Nuts Extracts Obtained by a Sustainable Approach” (Foods, 2023).

A short description of test [1]: ROS scavenging capacity, oxygen radical absorbance capacity (ORAC) assay. The class given is biochemical. As to conditions: optimized PLE extracts and reference standard (Table 2). As for the experimental part: (§1) The ROS scavenging capacity of the PLE extracts obtained from pracaxi nuts cake was measured using the oxygen radical absorbance capacity (ORAC) assay previously described. Ascorbic acid and 10% EtOH (v/v) were used as reference standard and blank control solutions, respectively. Complementary, the RNS scavenging capacity was estimated referring to the nitric oxide (NO) radical scavenging assay. Ascorbic acid was used as the reference standard and 25% EtOH was used as blank control solution. The AChE and BChE inhibitory activities of pracaxi nuts cake PLE extracts were estimated according to the fluorescent enzyme kinetic method described by Sanchez-Martinez et al.. […] Finally, the LOX inhibitory activity of pracaxi nuts cake PLE extracts was determined as described in [26], with slight modifications.

Test [2] is described as follows: RNS scavenging capacity, nitric oxide (NO) radical scavenging assay. The class given is biochemical. Particulars: optimized PLE extracts and reference standard (Table 2). As for the experimental part:
as §1

With `O=C1O[C@H]([C@@H](O)CO)C(O)=C1O` [Ascorbic acid, ascorbic acid], the “ROS (IC50)” value in test [1] was 3.2 ± 0.2 µg/mL. Moreover, the “RNS (IC50)” value in test [2] was 1120 ± 16 µg/mL.
